System: HeLa cells
Assay: MTT cytotoxicity of polymer/gene complexes in HeLa cells
Assay type: cell-based, human
Method: The cytotoxicity of the modified bPEI-25/gene complexes and modified bPEI-25/siRNA complexes was studied using the standard MTT assay protocol on HepG2, HeLa and SK-OV-3 cells. The GFP plasmid was used for complex formation and treatment of HepG2 and HeLa cells, while the luciferase plasmid was used for complex formation and treatment of SK-OV-3 cells.
HepG2, HeLa and SK-OV-3 cells were seeded onto 96-well plates at densities of 10000 cells, 5000 and 16000 cells per well, respectively, and allowed to grow to 60% to 70% confluency before treatment. Polymer/gene or polymer/siRNA complexes at various N/P ratios were prepared in water as described above. The cells in each well were then incubated with growth medium comprising 10 microliters of polymer/nucleic acid complexes and 100 microliters of fresh medium for 4 hours at 37° C. Following incubation, the medium was replaced with fresh growth medium and incubated further for 68 hours. […] A 100 microliter aliquot from each well was then transferred to a new 96-well plate for determination of absorbance using a microplate spectrophotometer at wavelengths of 550 nm and 690 nm. Relative cell viability was expressed as [A550−A690)sample/(A550−A690)control]×100%. Data were expressed as mean±standard deviations of at least eight replicates per N/P ratio.

**Q.** Branched Polyethylenimine [bPEI-25] was tested. Which “Maximum N/P ratio for Cell Viability ≧80%, HeLa Max N/P” value did it give?
**A.** 20

— US8703197B2, “Branched polyamines for delivery of biologically active materials” (International Business Machines Corporation, priority 2012, dated 2014)
